Reference: ChEMBL document CHEMBL5375999, “Discovery of a Dual Tubulin and Neuropilin-1 (NRP1) Inhibitor with Potent In Vivo Anti-Tumor Activity via Pharmacophore-based Docking Screening, Structure Optimization, and Biological Evaluation” (J Med Chem, 2023)
Each block holds one molecule with its values, some of them ahead of it. Calls of active or inactive are those of the source. The calls are words filed in the database; no cut-off is given here.

Columns and labels:
[1] = target: Tubulin; experiment: Inhibition of tubulin polymerization (unknown origin) by spectrophotometric analysis; assay type: protein-complex assay, Homo sapiens
[2] = target: Neuropilin-1 (Homo sapiens) (UniProt O14786); experiment: Inhibition of [125I]-VEGF-A165 binding to NRP1 (unknown origin) transfected in HUVECs incubated for 2 hrs by plate reader analysis; conditions: HUVEC
Target sequence in this assay (O14786 whole entry, looked up): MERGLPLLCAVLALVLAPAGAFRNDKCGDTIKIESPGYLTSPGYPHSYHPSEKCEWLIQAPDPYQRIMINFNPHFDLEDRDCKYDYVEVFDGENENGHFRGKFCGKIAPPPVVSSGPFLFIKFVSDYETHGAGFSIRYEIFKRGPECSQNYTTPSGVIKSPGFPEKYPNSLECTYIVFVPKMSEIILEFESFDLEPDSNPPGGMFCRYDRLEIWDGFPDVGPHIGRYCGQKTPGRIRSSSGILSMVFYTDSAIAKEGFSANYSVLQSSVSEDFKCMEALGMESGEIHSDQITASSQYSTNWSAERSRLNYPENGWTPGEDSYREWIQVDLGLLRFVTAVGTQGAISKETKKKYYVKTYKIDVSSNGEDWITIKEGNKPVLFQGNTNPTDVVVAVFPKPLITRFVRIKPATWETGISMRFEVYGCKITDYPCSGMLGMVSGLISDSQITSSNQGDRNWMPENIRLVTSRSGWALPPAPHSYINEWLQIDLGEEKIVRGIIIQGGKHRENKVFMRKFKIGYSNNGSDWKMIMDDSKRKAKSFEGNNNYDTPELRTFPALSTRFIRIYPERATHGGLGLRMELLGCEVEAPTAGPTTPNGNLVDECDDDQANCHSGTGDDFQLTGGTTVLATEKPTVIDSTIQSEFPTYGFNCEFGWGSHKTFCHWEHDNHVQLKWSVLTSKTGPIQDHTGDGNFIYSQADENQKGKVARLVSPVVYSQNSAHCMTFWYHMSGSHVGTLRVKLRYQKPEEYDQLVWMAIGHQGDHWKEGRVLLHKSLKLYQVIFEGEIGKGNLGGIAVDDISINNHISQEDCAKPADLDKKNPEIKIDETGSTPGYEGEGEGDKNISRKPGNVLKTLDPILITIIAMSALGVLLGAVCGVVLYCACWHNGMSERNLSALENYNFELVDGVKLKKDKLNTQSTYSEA

[3] = target: Tubulin (Homo sapiens) (UniProt P68371+Q9H4B7+P0DPH7+P68366+Q13509+Q71U36+P04350+Q3ZCM7+P07437+P68363+Q9BQE3+Q6PEY2+Q13885+Q9BVA1+Q9BUF5); experiment: Inhibition of tubulin polymerization (unknown origin) at 12 uM by spectrophotometric analysis relative to control; assay type: protein-complex assay
[4] = Cytotoxicity against human PrEC cells assessed as inhibition of cell viability incubated for 48 hrs by MTT assay; assay type: toxicity, cell-based
[5] = tested on: PC-3; experiment: Cytotoxicity against human PC-3 cells assessed as inhibition of cell viability incubated for 48 hrs by MTT assay; assay type: functional, cell-based; conditions: PC-3, 48 h
[6] = target: Neuropilin-1 (Homo sapiens) (UniProt O14786); experiment: Inhibition of [125I]-VEGF-A165 binding to NRP1 (unknown origin) transfected in HUVECs at 12 uM incubated for 2 hrs by plate reader analysis relative to control; assay type: cell-based; conditions: HUVEC
Target sequence in this assay (O14786 whole entry): as the sequence (O14786 whole entry, looked up) above

SMILES: COC(=O)[C@H](CCCNC(=N)N)NC(=O)/C=C/C(=O)Nc1cc(/C=C\c2cc(OC)c(OC)c(OC)c2)ccc1OC
IC50 [1]: 4.14 µM
inhibition [2]: inactive

SMILES: COc1cc(-c2cc(-n3c(S)nc4ccccc4c3=O)[nH]n2)cc(OC)c1OC
inhibition [3]: 28%

SMILES: COc1ccc(/C=C\c2cc(OC)c(OC)c(OC)c2)cc1NC(=O)CCCC(=O)N[C@@H](CCCNC(=N)N)C(=O)O
IC50 [1]: 5.57 µM

SMILES: COc1ccc(/C=C\c2cc(OC)c(OC)c(OC)c2)cc1O [COMBRETASTATIN A4]
inhibition [2]: inactive
IC50 at 48 h [4]: 0.08 µM
IC50 [5]: 0.06 µM

SMILES: COC(=O)[C@H](CCCNC(=N)N)NC(=O)CCCCC(=O)Nc1cc(/C=C\c2cc(OC)c(OC)c(OC)c2)ccc1OC
IC50 [1]: 9.34 µM
inhibition [2]: inactive

SMILES: COc1ccc(/C=C\c2cc(OC)c(OC)c(OC)c2)cc1NC(=O)CCCCC(=O)N[C@@H](CCCNC(=N)N)C(=O)O
IC50 [1]: 7.15 µM

SMILES: N=C(N)NCCC[C@H](NC(=O)c1sccc1NS(=O)(=O)c1cccc2nsnc12)C(=O)O
inhibition [6]: 87%

SMILES: N=C(N)NCCC[C@H](NC(=O)c1ccccc1)C(=O)O
inhibition [6]: 79%

SMILES: N=C(N)NCC(C[C@H](NCc1ccccc1)C(=O)O)[N+](=O)[O-] (stereo partly drawn)
inhibition [6]: 60%

SMILES: COc1cc([C@@H]2CC(=O)c3cnc(N4CCN(CCO)CC4)nc3C2)cc(OC)c1OC
inhibition [3]: 48%

SMILES: COc1ccc(/C=C\c2cc(OC)c(OC)c(OC)c2)cc1NC(=O)/C=C/C(=O)N[C@@H](CCCNC(=N)N)C(=O)O
IC50 [1]: 1.53 µM

SMILES: COC(=O)[C@H](CCCNC(=N)N)NC(=O)CCCC(=O)Nc1cc(/C=C\c2cc(OC)c(OC)c(OC)c2)ccc1OC
IC50 [1]: 7.96 µM
inhibition [2]: inactive

SMILES: Cc1ccc(S(=O)(=O)N[C@@H](CCCNC(=N)N)C(=O)O)cc1
inhibition [6]: 82%

SMILES: COC(=O)[C@H](CCCNC(=N)N)NC(=O)CCCCCCC(=O)Nc1cc(/C=C\c2cc(OC)c(OC)c(OC)c2)ccc1OC
inhibition [2]: inactive

Next, values leading:

inhibition [3]: 69%
SMILES: COc1cc2c(cc1OC)C(c1cc(OC)c(OC)c(OC)c1)OCC2 (stereo not drawn)

inhibition [3]: 45%
SMILES: COc1cc(C(=O)/C=C/Nc2cccc(C)c2)cc(OC)c1OC

inhibition [3]: 15%
SMILES: COc1cc(C2OC2C(=O)c2ccccc2)cc(OC)c1OC (stereo not drawn)

inhibition [3]: 21%
SMILES: COc1cc(-c2cc(C(F)(F)F)n3ncc(C(=O)NCC(C)C)c3n2)cc(OC)c1OC

inhibition [3]: 63%
SMILES: COc1cc(C(=O)/C=C/c2c[nH]c3ccc(Br)cc23)cc(OC)c1OC

inhibition [6]: 47%
inhibition [3]: 64%
SMILES: COc1cc(C(O)c2cc3c(cc2CO)OCO3)cc(OC)c1OC (stereo not drawn)

inhibition [3]: 71%
SMILES: COc1cc(O)c(/C=C/C(=O)c2cc(OC)c(OC)c(OC)c2)c(OC)c1

inhibition [3]: 52%
SMILES: COc1ccc2c(c1)OC(c1cc(OC)c(OC)c(OC)c1)CC2=O (stereo not drawn)
